For 30 compounds, remaining activity results are on record in paper PMC8286840, “Identifying SARS-CoV-2 antiviral compounds by screening for small molecule inhibitors of Nsp3 papain-like protease” (Biochemical Journal, 2021).

The target of test [1] is T1, SARS-CoV-2 PLpro (nsp3 1564–1878) (Severe acute respiratory syndrome coronavirus 2, UniProt P0DTD1). Description: biochemical. More on the design: FRET-quenched peptide (Pro3) cleavage by PLpro, 10 min pre-incubation, slope over 20 min, normalised to no-compound control. Particulars: low concentration screen, read-out: % of control remaining.
The target in test [2] is T1, SARS-CoV-2 PLpro (nsp3 1564–1878). The test can be described thus: biochemical. Set-up: FRET-quenched peptide (Pro3) cleavage by PLpro, 10 min pre-incubation, slope over 20 min, normalised to no-compound control. To be noted: high concentration screen, read-out: % of control remaining.

Structures can show the parent of a compound that is named as a salt. Where two headings read alike, the source gives them in different places.

Regarding `O=C(O)COc1ccccc1C(Nc1ccccn1)c1cc(Cl)c2cccnc2c1O` (stereo not drawn) [Mcl1-IN-1], the remaining activity at 1.25 µM in test [1] (Well no.=6880) stood at 99.8%. Besides, the remaining activity at 3.75 µM in test [2] (Well no.=6880) was found to be 96.8%.

In the case of `CN(N=O)c1ccc(O)c(O)c1` [Me-3,4-dephostatin], the remaining activity at 1.25 µM in test [1] (Well no.=1131) turned out to be 95.2%. Besides, in test [2] (Well no.=1131), the remaining activity at 3.75 µM was 91.3%.

With `CCCCCCCC/C=C\C/C=C\C/C=C\CCCC(=O)NCCO` [Mead ethanolamide], in test [1] (Well no.=4324), the remaining activity at 1.25 µM stood at 99.8%. In addition, the remaining activity at 3.75 µM in test [2] (Well no.=4324) came to 95.4%.

With `COC(=O)Nc1nc2cc(C(=O)c3ccccc3)ccc2[nH]1` [Mebendazol], the remaining activity at 1.25 µM in test [1] (Well no.=1947) worked out at 99%. Further, the remaining activity at 3.75 µM in test [2] (Well no.=1947) worked out at 100%.

As to `CCN(CCCCOC(=O)c1ccc(OC)c(OC)c1)C(C)Cc1ccc(OC)cc1` (stereo not drawn) [Mebeverine (hydrochloride)], in test [1] (Well no.=7048), the remaining activity at 1.25 µM came to 108%. In test [2] (Well no.=7048), the remaining activity at 3.75 µM was 101%.

`CN1CCc2c(c3ccccc3n2Cc2ccccc2)C1` [Mebhydrolin (napadisylate)]: the remaining activity at 1.25 µM in test [1] (Well no.=7437) amounted to 99.4%. In addition, the remaining activity at 3.75 µM in test [2] (Well no.=7437) was found to be 94.1%.

As to `CNC1(C)C2CCC(C2)C1(C)C` (stereo not drawn) [Mecamylamine hydrochloride], the remaining activity at 1.25 µM in test [1] (Well no.=987) was 98.1%. Further, in test [2] (Well no.=987), the remaining activity at 3.75 µM was found to be 99.8%.

`CNC1(C)C2CCC(C2)C1(C)C` (stereo not drawn) [Mecamylamine]: the remaining activity at 1.25 µM in test [1] (Well no.=1556) turned out to be 103%. Moreover, the remaining activity at 3.75 µM in test [2] (Well no.=1556) amounted to 102%.

Turning to `CCOC(=O)c1c(C)n(C)c2ccc(O)cc12` [Mecarbinate], in test [1] (Well no.=4756), the remaining activity at 1.25 µM stood at 98.2%. In test [2] (Well no.=4756), the remaining activity at 3.75 µM came out at 95.8%.

Consider `Cc1ccc(Cl)c(Nc2ccccc2C(=O)O)c1Cl` [Meclofenamic acid sodium salt], for which the remaining activity at 1.25 µM in test [1] (Well no.=5492) is 104%. In addition, the remaining activity at 3.75 µM in test [2] (Well no.=5492) turned out to be 106%.

Take `Cc1ccc(Cl)c(Nc2ccccc2C(=O)O)c1Cl` [Meclofenamic acid sodium]: the remaining activity at 1.25 µM in test [1] (Well no.=784) came to 103%. For the same compound, in test [2] (Well no.=784), the remaining activity at 3.75 µM stood at 103%.

In the case of `Cc1cccc(C(C)c2c[nH]cn2)c1C` (stereo not drawn) [Medetomidine (hydrochloride)], the remaining activity at 1.25 µM in test [1] (Well no.=7479) is 103%. In addition, the remaining activity at 3.75 µM in test [2] (Well no.=7479) was determined as 99.7%.

For the compound `Cc1cccc(C(C)c2c[nH]cn2)c1C` (stereo not drawn) [Medetomidine HCl], in test [1] (Well no.=4927), the remaining activity at 1.25 µM turned out to be 99.2%. Further, the remaining activity at 3.75 µM in test [2] (Well no.=4927) came out at 100%.

Regarding `CC(=O)O[C@]1(C(C)=O)CC[C@H]2[C@@H]3C[C@H](C)C4=CC(=O)CC[C@]4(C)[C@H]3CC[C@@]21C` [Medroxyprogesterone 17-Acetate], the remaining activity at 1.25 µM in test [1] (Well no.=1949) is 103%. Besides, the remaining activity at 3.75 µM in test [2] (Well no.=1949) came to 104%.

On to `Cc1cccc(Nc2ccccc2C(=O)O)c1C` [Mefenamic acid], for which the remaining activity at 1.25 µM in test [1] (Well no.=1951) was 97.7%. Further, the remaining activity at 3.75 µM in test [2] (Well no.=1951) was determined as 99.7%.

Regarding `CC(=O)O[C@]1(C(C)=O)CC[C@H]2[C@@H]3C=C(C)C4=CC(=O)CC[C@]4(C)[C@H]3CC[C@@]21C` [Megestrol Acetate], in test [1] (Well no.=2236), the remaining activity at 1.25 µM worked out at 95%. The remaining activity at 3.75 µM in test [2] (Well no.=2236) is 93.2%.

On to `CNC[C@H](O)[C@@H](O)[C@H](O)[C@H](O)CO` [Meglumine], for which, in test [1] (Well no.=1565), the remaining activity at 1.25 µM was determined as 104%. Moreover, the remaining activity at 3.75 µM in test [2] (Well no.=1565) amounted to 104%.

For `CN1C(=O)/C(=C2/C(=O)Nc3ccccc32)c2ccccc21` [Meisoindigo], the remaining activity at 1.25 µM in test [1] (Well no.=6772) was found to be 94.5%. In test [2] (Well no.=6772), the remaining activity at 3.75 µM turned out to be 95%.

Consider `COc1ccc2[nH]cc(CCNC(C)=O)c2c1` [Melatonin], for which the remaining activity at 1.25 µM in test [1] (Well no.=1072) amounted to 98.6%; in test [1] (Well no.=1665), 106%; in test [1] (Well no.=3320) it was 99.3%; in test [1] (Well no.=3990), 101%; in test [1] (Well no.=6347), 97.8%; in test [1] (Well no.=6565), 103%. Besides, the remaining activity at 3.75 µM in test [2] (Well no.=1072) stood at 101%; in test [2] (Well no.=1665), 107%; in test [2] (Well no.=3320), 98.5%; in test [2] (Well no.=6347), 102%; in test [2] (Well no.=6565), 96.1%.

Take `C=C1C[C@H]2[C@@H]3C=C(C)C4=CC(=O)CC[C@]4(C)[C@H]3CC[C@]2(C)[C@@]1(OC(C)=O)C(C)=O` [Melengestrol Acetate]: the remaining activity at 1.25 µM in test [1] (Well no.=2238) came out at 99.1%. Moreover, the remaining activity at 3.75 µM in test [2] (Well no.=2238) came out at 99.4%.

Take `Cc1cnc(NC(=O)C2=C(O)c3ccccc3S(=O)(=O)N2C)s1` [Meloxicam sodium]: the remaining activity at 1.25 µM in test [1] (Well no.=974) is 98.2%. For the same compound, the remaining activity at 3.75 µM in test [2] (Well no.=974) was determined as 99.2%.

Regarding `Cc1cnc(NC(=O)C2=C(O)c3ccccc3S(=O)(=O)N2C)s1` [Meloxicam], the remaining activity at 1.25 µM in test [1] (Well no.=1578) worked out at 94.4%. Moreover, the remaining activity at 3.75 µM in test [2] (Well no.=1578) came to 96.6%.

Take `N[C@@H](Cc1ccc(N(CCCl)CCCl)cc1)C(=O)O` [Melphalan]: the remaining activity at 1.25 µM came out at 94.4% in test [1] (Well no.=1112) and 100% in test [1] (Well no.=1953). The remaining activity at 3.75 µM in test [2] (Well no.=1112) amounted to 94.4%.

In the case of `CC12CC3CC(C)(C1)CC(N)(C3)C2` [Memantine hydrochloride], the remaining activity at 1.25 µM in test [1] (Well no.=1083) came out at 97.8%. In addition, in test [2] (Well no.=1083), the remaining activity at 3.75 µM turned out to be 99.3%.

With `CC12CC3CC(C)(C1)CC(N)(C3)C2` [Memantine.HCl], the remaining activity at 1.25 µM in test [1] (Well no.=1887) is 94.9%. Also, in test [2] (Well no.=1887), the remaining activity at 3.75 µM came to 95.2%.

As for `CC1=CC(=O)c2ccccc2C1=O` [Menadione], the remaining activity at 1.25 µM in test [1] (Well no.=3372) was found to be 98.5%; in test [1] (Well no.=6251), 99.2%. For the same compound, the remaining activity at 3.75 µM in test [2] (Well no.=3372) amounted to 96.5%; in test [2] (Well no.=6251) it was 101%.

On to `C[N+]1(C)CCCC(OC(=O)C(O)(c2ccccc2)c2ccccc2)C1` (stereo not drawn) [Mepenzolate (Bromide)], for which, in test [1] (Well no.=7911), the remaining activity at 1.25 µM turned out to be 102%. Moreover, in test [2] (Well no.=7911), the remaining activity at 3.75 µM turned out to be 100%.

Regarding `CCC1(c2ccccc2)NC(=O)N(C)C1=O` (stereo not drawn) [Mephenytoin], the remaining activity at 1.25 µM in test [1] (Well no.=1774) stood at 99.1%. Also, the remaining activity at 3.75 µM in test [2] (Well no.=1774) came to 99.4%.

For the compound `Cc1cccc(C)c1NC(=O)C1CCCCN1C` (stereo not drawn) [Mepivacaine HCl], the remaining activity at 1.25 µM in test [1] (Well no.=4981) came to 99.3%. Besides, in test [2] (Well no.=4981), the remaining activity at 3.75 µM worked out at 101%.

Turning to `C[C@H]1C[C@H]2[C@@H]3CCC4=CC(=O)C=C[C@]4(C)[C@H]3C(=O)C[C@]2(C)[C@@]1(O)C(=O)CO` [Meprednisone], the remaining activity at 1.25 µM in test [1] (Well no.=6509) came to 101%. For the same compound, the remaining activity at 3.75 µM in test [2] (Well no.=6509) was 102%.
